Assays:
[1] = target: PI3Kdelta (Homo sapiens (Human), UniProt O00329); assay: HTRF PI3K biochemical assay, delta isoform; details: 0.3 nM enzyme, 100 uM ATP, 50 uM PIP2; form screened (neutral or TFA salt)
Method: (§1) HTRF PI3K Biochemical Assay to Measure Intrinsic Potency of Compound Inhibitors
(§2) This loss of signal is nonlinear with respect to both increasing product and time. This non-linear detection will impact accuracy of IC50 calculations; therefore, there is a need for a correction factor to obtain more accurate IC50 values. This correction is derived from a PIP3 standard curve run in a separate assay plate. All data were calculated using the ratio of acceptor (APC) to donor (Europium) fluorescence in each well of the assay plate. […] An IC50 was then calculated fitting the % inhibition data to the equation: % inhibition=min+(Max−min)/1+([inhibitor]/IC50)^n) where min is the % inhibition with inhibitor, max is the signal in DMSO control, and n is the Hill slope.
(§3) The biological data was collected using the methodology described above.

[2] = target: PI3Kalpha (Homo sapiens (Human), UniProt P42336); assay: HTRF PI3K biochemical assay, alpha isoform (selectivity versus delta); details: ratio PI3K-alpha IC50 value/PI3K-delta IC50 value
Method: as §1, §2, §3
The determination of relative selectivity for a given compound is defined as the relative ratio of the (PI3K-alphaIC50 value/PI3K-delta IC50 value).

PI3Kalpha, sequence (P42336 whole entry, canonical isoform): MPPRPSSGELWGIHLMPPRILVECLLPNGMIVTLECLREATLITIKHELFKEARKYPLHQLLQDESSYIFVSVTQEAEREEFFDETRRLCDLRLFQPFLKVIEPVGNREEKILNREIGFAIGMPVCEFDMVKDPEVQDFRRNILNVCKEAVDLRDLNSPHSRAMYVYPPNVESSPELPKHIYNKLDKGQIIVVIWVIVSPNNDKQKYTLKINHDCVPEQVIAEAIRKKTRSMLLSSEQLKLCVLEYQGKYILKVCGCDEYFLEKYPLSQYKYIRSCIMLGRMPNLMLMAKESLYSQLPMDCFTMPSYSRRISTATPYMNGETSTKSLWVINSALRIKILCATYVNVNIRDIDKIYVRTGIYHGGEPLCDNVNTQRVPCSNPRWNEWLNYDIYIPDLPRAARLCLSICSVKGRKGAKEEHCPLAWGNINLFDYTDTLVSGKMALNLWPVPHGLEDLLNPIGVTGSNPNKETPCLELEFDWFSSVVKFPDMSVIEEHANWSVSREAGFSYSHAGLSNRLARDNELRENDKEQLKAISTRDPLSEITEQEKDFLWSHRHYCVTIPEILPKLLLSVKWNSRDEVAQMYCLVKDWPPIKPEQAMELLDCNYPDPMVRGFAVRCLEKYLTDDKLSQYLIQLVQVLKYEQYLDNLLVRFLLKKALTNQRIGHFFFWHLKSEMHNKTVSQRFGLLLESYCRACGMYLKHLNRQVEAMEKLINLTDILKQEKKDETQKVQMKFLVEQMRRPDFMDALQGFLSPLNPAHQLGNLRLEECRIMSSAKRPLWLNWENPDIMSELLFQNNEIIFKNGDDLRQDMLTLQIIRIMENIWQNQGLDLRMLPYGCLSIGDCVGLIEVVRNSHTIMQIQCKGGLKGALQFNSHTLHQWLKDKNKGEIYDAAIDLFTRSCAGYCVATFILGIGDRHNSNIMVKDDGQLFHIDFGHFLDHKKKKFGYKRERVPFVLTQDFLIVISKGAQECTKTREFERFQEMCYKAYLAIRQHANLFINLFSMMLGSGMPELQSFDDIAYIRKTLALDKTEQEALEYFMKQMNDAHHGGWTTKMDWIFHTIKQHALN
PI3Kalpha, sequence (P27986 whole entry partner, canonical isoform): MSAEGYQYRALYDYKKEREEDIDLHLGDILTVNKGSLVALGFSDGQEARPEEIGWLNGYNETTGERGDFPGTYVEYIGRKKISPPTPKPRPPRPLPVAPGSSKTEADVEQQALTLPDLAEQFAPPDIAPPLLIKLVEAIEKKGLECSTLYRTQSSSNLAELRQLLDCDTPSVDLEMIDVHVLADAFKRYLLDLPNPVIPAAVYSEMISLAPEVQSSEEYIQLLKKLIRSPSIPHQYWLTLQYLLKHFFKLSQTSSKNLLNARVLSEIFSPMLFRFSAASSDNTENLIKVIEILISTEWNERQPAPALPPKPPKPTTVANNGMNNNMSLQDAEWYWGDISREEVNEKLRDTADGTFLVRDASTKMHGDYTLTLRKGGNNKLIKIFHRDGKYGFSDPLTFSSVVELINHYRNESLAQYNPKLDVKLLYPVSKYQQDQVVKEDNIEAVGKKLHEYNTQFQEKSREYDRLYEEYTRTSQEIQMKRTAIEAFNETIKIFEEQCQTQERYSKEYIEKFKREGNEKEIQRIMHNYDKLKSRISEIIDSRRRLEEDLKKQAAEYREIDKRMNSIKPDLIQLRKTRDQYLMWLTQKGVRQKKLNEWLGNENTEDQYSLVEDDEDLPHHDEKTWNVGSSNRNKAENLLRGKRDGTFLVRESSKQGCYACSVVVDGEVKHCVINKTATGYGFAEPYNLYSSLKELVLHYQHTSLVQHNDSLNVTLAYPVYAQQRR
PI3Kdelta, sequence (O00329 whole entry, canonical isoform): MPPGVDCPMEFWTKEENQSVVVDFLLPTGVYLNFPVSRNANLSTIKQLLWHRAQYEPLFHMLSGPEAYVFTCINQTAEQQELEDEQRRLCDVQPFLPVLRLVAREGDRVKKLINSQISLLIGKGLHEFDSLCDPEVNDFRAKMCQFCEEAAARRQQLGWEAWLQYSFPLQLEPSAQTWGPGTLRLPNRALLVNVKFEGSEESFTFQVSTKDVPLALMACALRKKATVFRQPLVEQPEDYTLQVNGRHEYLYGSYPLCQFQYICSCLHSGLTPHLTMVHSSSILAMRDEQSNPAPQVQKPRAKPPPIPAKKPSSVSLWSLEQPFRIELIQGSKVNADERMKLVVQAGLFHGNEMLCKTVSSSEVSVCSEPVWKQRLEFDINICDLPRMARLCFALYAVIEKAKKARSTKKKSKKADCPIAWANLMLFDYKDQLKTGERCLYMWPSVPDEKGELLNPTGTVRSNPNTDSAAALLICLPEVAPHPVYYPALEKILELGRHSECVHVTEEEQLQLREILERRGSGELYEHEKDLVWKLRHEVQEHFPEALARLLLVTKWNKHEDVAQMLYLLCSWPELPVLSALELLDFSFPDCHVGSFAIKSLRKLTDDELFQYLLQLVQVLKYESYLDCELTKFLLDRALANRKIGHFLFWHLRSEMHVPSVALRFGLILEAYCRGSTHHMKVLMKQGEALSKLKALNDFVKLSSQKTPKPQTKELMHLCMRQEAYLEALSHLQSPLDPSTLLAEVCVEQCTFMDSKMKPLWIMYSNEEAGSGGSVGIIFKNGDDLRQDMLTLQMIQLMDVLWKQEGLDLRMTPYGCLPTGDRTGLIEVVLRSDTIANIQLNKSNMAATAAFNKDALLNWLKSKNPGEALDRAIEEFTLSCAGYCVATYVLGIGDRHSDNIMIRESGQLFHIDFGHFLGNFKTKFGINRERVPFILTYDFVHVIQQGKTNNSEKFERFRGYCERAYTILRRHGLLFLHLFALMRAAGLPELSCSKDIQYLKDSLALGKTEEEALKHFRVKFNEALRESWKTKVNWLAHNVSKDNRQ
PI3Kdelta, sequence (P27986 whole entry partner, canonical isoform): as the sequence (P27986 whole entry partner, canonical isoform) above

| SMILES | IC50 [1] [nM] | Relative Selectivity versus PI3Kalpha [2] |
| --- | --- | --- |
| CCn1c(-c2cnc(C)nc2)nc2c(-c3ccc4c(c3)C(C)(N(C)CCOC)C(=O)N4)ncnc21 (racemic) [Compound 2-14, (R and S)-5-[9-ethyl-8-(2-methylpyrimidin-5-yl)-9H-purin-6-yl]-3-[(2-methoxyethyl)(methyl)amino]-3-methyl-1,3-dihydro-2H-indol-2-one] | 46 | >10 |
| CCn1c(-c2cnc(C)nc2)nc2c(-c3ccc4c(c3)C(C)(N3CC(C)(C#N)C3)C(=O)N4)ncnc21 (single isomer, unassigned) [Compound 2-6, (R or S)-1-{5-[9-ethyl-8-(2-methylpyrimidin-5-yl)-9H-purin-6-yl]-3-methyl-2-oxo-2,3-dihydro-1H-indol-3-yl}-3-methylazetidine-3-carbonitrile] | 3 | >10 |
| CCn1c(-c2cnc(C)nc2)nc2c(-c3ccc4c(c3)C(C)(Nc3ccncc3)C(=O)N4)ncnc21 (racemic) [Compound 2-9, (R and S)-5-[9-ethyl-8-(2-methylpyrimidin-5-yl)-9H-purin-6-yl]-3-methyl-3-(pyridin-4-ylamino)-1,3-dihydro-2H-indol-2-one] | 144 | >10 |
| CCn1c(-c2cnc(C)nc2)nc2c(-c3ccc4c(c3)C3(CCCN3S(C)(=O)=O)C(=O)N4)ncnc21 (single isomer, unassigned) [Compound 3-20, (R or S)-5-(9-ethyl-8-(2-methylpyrimidin-5-yl)-9H-purin-6-yl)-1′-(methylsulfonyl)spiro[indoline-3,2′-pyrrolidin]-2-one] | 55 | >10 |
| CCn1ncc(-c2nc3c(-c4ccc5c(c4)C(C)(CC4CC4)C(=O)N5)ncnc3n2CC)c1C (single isomer, unassigned) [Compound 1-25, 3-(Cyclopropylmethyl)-5-(9-ethyl-8-(1-ethyl-5-methyl-1H-pyrazol-4-yl)-9H-purin-6-yl)-3-methylindolin-2-one] | 4 | >10 |
| CCn1c(-c2cnc(C)nc2)nc2c(-c3ccc4c(c3)C(C)(Cc3ccccc3)CN4C)ncnc21 (stereo not shown) [Compound 1-22, 6-(3-Benzyl-1,3-dimethylindolin-5-yl)-9-ethyl-8-(2-methylpyrimidin-5-yl)-9H-purine] |  | >10 |
| CCn1c(-c2cnc(C)nc2)nc2c(-c3ccc4c(c3)C(C)(Cc3ccccc3)C(=O)N4C)ncnc21 (single isomer, unassigned) [Compound 1-20, 3-Benzyl-5-(9-ethyl-8-(2-methylpyrimidin-5-yl)-9H-purin-6-yl)-1,3-dimethylindolin-2-one] | 477 | 3 |
| CCn1c(-c2cnc(C)nc2)nc2c(-c3ccc4c(c3)C(C)(N3CCC5OCCC53)C(=O)N4)ncnc21 (racemic) [Compound 2-10, (R and S)-5-[9-ethyl-8-(2-methylpyrimidin-5-yl)-9H-purin-6-yl]-3-(hexahydro-4H-furo[3,2-b]pyrrol-4-yl)-3-methyl-1,3-dihydro-2H-indol-2-one] | 14 | >10 |
| CCn1c(-c2cnc(C)nc2)nc2c(-c3ccc4c(c3)C(C)(OCC3CC3)C(=O)N4)ncnc21 (single isomer, unassigned) [Compound 2-57, (R or S)-3-(cyclopropylmethoxy)-5-(9-ethyl-8-(2-methylpyrimidin-5-yl)-9H-purin-6-yl)-3-methylindolin-2-one] | 264 | >10 |
| CCn1c(-c2cnc(C)nc2)nc2c(-c3ccc4c(c3)C(C)(OC3CCC3)C(=O)N4)ncnc21 (racemic) [Compound 2-74, 3-cyclobutoxy-5-(9-ethyl-8-(2-methylpyrimidin-5-yl)-9H-purin-6-yl)-3-methylindolin-2-one] |  | >10 |
| Cc1ncc(-c2nc3c(-c4ccc5c(c4)C4(CCN(C(=O)C6CC6)CC4)C(=O)N5)ncnc3n2C)cn1 [Compound 3-25, 1′-(cyclopropanecarbonyl)-5-(9-methyl-8-(2-methylpyrimidin-5-yl)-9H-purin-6-yl)spiro[indoline-3,4′-piperidin]-2-one] |  | >10 |
| CCn1c(-c2cnc(C)nc2)nc2c(-c3ccc4c(c3)C(C)(Cc3cncnc3)C(=O)N4)ncnc21 (racemic) [Compound 1-33, 5-(9-ethyl-8-(2-methylpyrimidin-5-yl)-9H-purin-6-yl)-3-methyl-3-(pyrimidin-5-ylmethyl)indolin-2-one] |  | >10 |
| CCn1c(-c2cnc(C)nc2)nc2c(-c3ccc4c(c3)C(C#N)(N3CC(C)(OC)C3)C(=O)N4)ncnc21 (stereo not shown) [Compound 2-77, 5-(9-ethyl-8-(2-methylpyrimidin-5-yl)-9H-purin-6-yl)-3-(3-methoxy-3-methylazetidin-1-yl)-2-oxoindoline-3-carbonitrile] |  | >10 |
| CCn1c(-c2cnc(C)nc2)nc2c(-c3ccc4c(c3)C(C)(Cc3ccccc3)CN4C(C)=O)ncnc21 (stereo not shown) [Compound 1-19, 1-(3-Benzyl-5-(9-ethyl-8-(2-methylpyrimidin-5-yl)-9H-purin-6-yl)-3-methylindolin-1-yl)ethan-1-one] |  | >10 |
| CCn1c(-c2cnc(C)nc2)nc2c(-c3ccc4c(c3)C(C#N)(CC(C)C)C(=O)N4)ncnc21 (stereo not shown) [Compound 1-11, 5-(9-Ethyl-8-(2-methylpyrimidin-5-yl)-9H-purin-6-yl)-3-isobutyl-2-oxoindoline-3-carbonitrile] |  | >10 |
| CCn1c(-c2cnc(C)nc2)nc2c(-c3ccc4c(c3)C(C)(Cc3ccccc3)CN4)ncnc21 (stereo not shown) [Compound 1-18, 6-(3-Benzyl-3-methylindolin-5-yl)-9-ethyl-8-(2-methylpyrimidin-5-yl)-9H-purine] |  | >10 |
| CCn1c(-c2cnc(C)nc2)nc2c(-c3ccc4c(c3)C3(CCCC3)C(=O)N4)ncnc21 [Compound 3-34, 5′-(9-ethyl-8-(2-methylpyrimidin-5-yl)-9H-purin-6-yl)spiro[cyclopentane-1,3′-indolin]-2′-one] |  | >10 |
| Cc1ncc(-c2nc3c(-c4ccc5c(c4)C(C)(OCC4CC4)C(=O)N5)ncnc3n2C)cn1 (racemic) [Compound 2-75, 3-(cyclopropylmethoxy)-3-methyl-5-(9-methyl-8-(2-methylpyrimidin-5-yl)-9H-purin-6-yl)indolin-2-one] |  | >10 |
| CCn1c(-c2cnc(C)nc2)nc2c(-c3ccc4c(c3)C(C)(OC(C)C)C(=O)N4)ncnc21 (racemic) [Compound 2-73, 5-(9-ethyl-8-(2-methylpyrimidin-5-yl)-9H-purin-6-yl)-3-isopropoxy-3-methylindolin-2-one] |  | >10 |

Further lines, results first:

| IC50 [1] [nM] | Relative Selectivity versus PI3Kalpha [2] | SMILES |
| --- | --- | --- |
| 22 | >10 | CCn1c(-c2cnc(C)nc2)nc2c(-c3ccc4c(c3)C(Cc3ccccc3)NC4=O)ncnc21 (single isomer, unassigned) [Compound 4-9, (R or S)-3-benzyl-5-[9-ethyl-8-(2-methylpyrimidin-5-yl)-9H-purin-6-yl]-2,3-dihydro-1H-isoindol-1-one] |
| 97 | 2 | CCn1c(-c2cnc(C)nc2)nc2c(-c3ccc4c(c3)C(Cc3ccccc3)OC(=O)N4)ncnc21 (single isomer, unassigned) [Compound 4-1, (R or S)-4-benzyl-6-[9-ethyl-8-(2-methylpyrimidin-5-yl)-9H-purin-6-yl]-1,4-dihydro-2H-3,1-benzoxazin-2-one] |
|  | >10 | CCn1c(-c2cnc(C)nc2)nc2c(-c3ccc4c(c3)CN(C)S4(=O)=O)ncnc21 [Compound 4-14, 5-(9-ethyl-8-(2-methylpyrimidin-5-yl)-9H-purin-6-yl)-2-methyl-2,3-dihydrobenzo[d]isothiazole 1,1-dioxide] |
|  | 7 | CCn1c(-c2cnc(C)nc2)nc2c(-c3ccc4c(c3)CNC4=O)ncnc21 [Compound 4-15, 5-(9-ethyl-8-(2-methylpyrimidin-5-yl)-9H-purin-6-yl)isoindolin-1-one] |
|  | >10 | CCn1c(-c2cnc(C)nc2)nc2c(-c3ccc4c(c3)C(C)(c3ccccc3)OC(=O)N4)ncnc21 (stereo not shown) [Compound 4-16, 6-(9-ethyl-8-(2-methylpyrimidin-5-yl)-9H-purin-6-yl)-4-methyl-4-phenyl-1,4-dihydro-2H-benzo[d][1,3]oxazin-2-one] |
|  | >10 | CCn1c(-c2cnc(C)nc2)nc2c(-c3ccc4oc(=O)n(CC5CCOCC5)c4c3)ncnc21 [Compound 5-4, 5-[9-ethyl-8-(2-methylpyrimidin-5-yl)-9H-purin-6-yl]-3-(tetrahydro-2H-pyran-4-ylmethyl)-1,3-benzoxazol-2(3H)-one] |
|  | 9 | CCn1c(-c2cnc(C)nc2)nc2c(-c3ccc4c(c3)CNS4(=O)=O)ncnc21 [Compound 4-13, 5-(9-ethyl-8-(2-methylpyrimidin-5-yl)-9H-purin-6-yl)-2,3-dihydrobenzo[d]isothiazole 1,1-dioxide] |
|  | >10 | CCn1c(-c2cnc(C)nc2)nc2c(-c3ccc4oc(=O)n(Cc5ccccc5)c4c3)ncnc21 [Compound 5-3, 3-benzyl-5-[9-ethyl-8-(2-methylpyrimidin-5-yl)-9H-purin-6-yl]-1,3-benzoxazol-2(3H)-one] |
